Data taken from paper PMC11073699, “Odorant receptors for floral- and plant-derived volatiles in the yellow fever mosquito, Aedes aegypti (Diptera: Culicidae)” (PLOS ONE, 2024).
“And” between values parts separate entries of the source, which are not always exact repeats. Identical values can stand only once.

What was measured:
Type in all cases: cell-based
[1] = target: T1, AaegOR28 (Aedes aegypti, UniProt Q0IGE1); experiment: Two-electrode voltage clamp of Xenopus laevis oocytes expressing AaegOR28/Orco (blends, unitary compounds, concentration-response); details: AaegOR28, compounds of blend Alcohols 3; for Raw Data (Responses in nA), Alcohols 3 unitary compounds: individual oocytes 1-10
T1 sequence (Q0IGE1 1-394): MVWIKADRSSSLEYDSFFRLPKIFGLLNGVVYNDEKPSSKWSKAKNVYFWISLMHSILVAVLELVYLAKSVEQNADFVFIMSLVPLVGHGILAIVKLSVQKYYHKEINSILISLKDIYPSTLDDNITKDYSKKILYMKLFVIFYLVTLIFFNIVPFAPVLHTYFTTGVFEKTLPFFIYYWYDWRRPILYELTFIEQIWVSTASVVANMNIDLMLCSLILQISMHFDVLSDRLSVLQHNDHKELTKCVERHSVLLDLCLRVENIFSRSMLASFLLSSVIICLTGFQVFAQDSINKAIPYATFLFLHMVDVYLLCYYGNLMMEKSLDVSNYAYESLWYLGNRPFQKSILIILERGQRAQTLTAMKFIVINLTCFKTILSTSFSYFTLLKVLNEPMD
T1 sequence (Q178U6 1-478 partner): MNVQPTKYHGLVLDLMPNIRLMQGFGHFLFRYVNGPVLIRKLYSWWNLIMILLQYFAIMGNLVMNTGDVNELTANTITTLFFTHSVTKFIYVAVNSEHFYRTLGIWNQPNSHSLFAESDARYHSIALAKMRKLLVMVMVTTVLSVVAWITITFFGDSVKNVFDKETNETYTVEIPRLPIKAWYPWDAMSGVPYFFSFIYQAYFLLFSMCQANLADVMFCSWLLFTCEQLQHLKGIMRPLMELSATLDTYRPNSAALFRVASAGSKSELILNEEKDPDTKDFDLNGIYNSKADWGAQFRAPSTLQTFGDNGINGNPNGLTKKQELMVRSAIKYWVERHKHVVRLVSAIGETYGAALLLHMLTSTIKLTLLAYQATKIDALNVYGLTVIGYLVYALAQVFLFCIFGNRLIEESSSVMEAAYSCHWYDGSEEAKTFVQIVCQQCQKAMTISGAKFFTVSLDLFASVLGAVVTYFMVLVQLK
From the text: (§1) The coding regions of ten AaegOR genes of interest (S3 File) and AaegOrco were synthesized by Twist Bioscience (San Francisco, CA, USA) and cloned into the pENTR plasmid. The Gateway LR directional cloning system (Invitrogen Corp., Carlsbad, CA, USA) was utilized to subclone AaegOR coding regions into the pSP64t-RFA oocyte expression plasmid. Plasmids were purified using the GeneJet Plasmid Miniprep Kit (ThermoFisher Scientific, Waltham, MA, USA). Purified plasmids were sequenced in both directions to confirm coding regions.
(§2) Chemical compounds (S6 File) used in the deorphanization of AaegORs were purchased from Acros Organics (Morris, NJ, USA), Alfa Aesar (Ward Hill, MA, USA), and ThermoFisher Scientific (Waltham, MA, USA) at the highest purity available. Compounds were stored as 1M stocks in 100% DMSO. Serial dilutions of each compound were prepared in 10% DMSO and blended by chemical class.
(§3) pSP64t-RFA: AaegOR clones were linearized using Xbal, and cRNAs were synthesized using the mMESSAGE mMACHINE ® SP6 kit (Life Technologies, Carlsbad, CA, USA). Xenopus laevis stage V-VII oocytes purchased from Xenopus1 (Dexter, MI, USA) were stored at 18°C in Incubation medium (ND96 96 with 5% dialyzed horse serum, 50μg/mL gentamycin, 100μg/mL streptomycin, 100μg/mL penicillin, and 550μg/mL sodium pyruvate). 30nL of cRNA was injected into multiple oocytes using a microinjection syringe pump (World Precision Instruments, Sarasota, FL, USA) maintained at 18°C for 48–72 hrs. Odorant blends were perfused across individual oocytes for 10–15 seconds, held at a resting membrane potential of -80 mV using an OC-725C oocyte clamp (Warner Instruments, LLC, Hamden, CT, USA). Induced currents were measured indirectly using the two-electrode voltage clamp technique (TEVC). Following each stimulus, currents were allowed to return to baseline before further stimulation. Data was captured using the Digidata 1550 B digitizer and PClamp10 software (Molecular Devices, San Jose, CA, USA). Concentration-response curves were generated by perfusing unitary odorants over oocytes at increasing concentrations from [10^-3M] to [10^-9M]. Data were analyzed using GraphPad Prism 8 (GraphPad Software Inc., La Jolla, CA, USA). At least two biological replicates were conducted at each concentration and for each compound. Data for at least seven oocytes responding to each compound was analyzed (S7 File).

[2] = target: T2, AaegOR31 (Aedes aegypti, UniProt Q16JU0); experiment: Two-electrode voltage clamp of Xenopus laevis oocytes expressing AaegOR31/Orco (blends, unitary compounds, concentration-response); details: for Normalized response, Average, Alcohols 1 unitary compounds / Raw Data (Responses in nA), Alcohols 1 unitary compounds / Normalized response, Alcohols 1 unitary compounds / Raw Data (Responses in nA), concentration-response: AaegOR31; for Normalized response, Average, Alcohols 1 unitary compounds / Raw Data (Responses in nA), Alcohols 1 unitary compounds / Normalized response, Alcohols 1 unitary compounds: compounds of blend Alcohols 1; for Normalized response, Average, Alcohols 1 unitary compounds: average of 8 oocytes; for Raw Data (Responses in nA), Alcohols 1 unitary compounds / Normalized response, Alcohols 1 unitary compounds: individual oocytes (Oocyte 1-8); for Normalized response, Alcohols 1 unitary compounds: normalized to the strongest compound per oocyte; for Raw Data (Responses in nA), concentration-response: individual oocytes (Oocyte 1-10)
T2 sequence (Q16JU0 1-381): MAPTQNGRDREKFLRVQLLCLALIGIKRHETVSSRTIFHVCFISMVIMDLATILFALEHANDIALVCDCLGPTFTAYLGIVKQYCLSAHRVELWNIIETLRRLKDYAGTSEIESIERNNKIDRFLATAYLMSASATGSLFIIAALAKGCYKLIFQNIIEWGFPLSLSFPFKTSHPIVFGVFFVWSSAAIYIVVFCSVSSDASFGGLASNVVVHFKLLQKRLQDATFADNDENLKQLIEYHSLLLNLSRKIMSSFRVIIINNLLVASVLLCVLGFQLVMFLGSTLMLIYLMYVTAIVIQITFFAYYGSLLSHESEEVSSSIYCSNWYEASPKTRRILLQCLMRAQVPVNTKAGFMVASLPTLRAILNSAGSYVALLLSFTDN
T2 sequence (Q178U6 1-478 partner): T1 sequence (Q178U6 1-478 partner)
From the text: as §1, §2, §3

[3] = target: T3, AaegOR13 (Aedes aegypti, UniProt Q16Z13); experiment: Two-electrode voltage clamp of Xenopus laevis oocytes expressing AaegOR13/Orco (blends, unitary compounds, concentration-response); details: unitary compounds; for Normalized response, unitary compounds, Average: average of oocytes 1-7; for Raw data (Responses in nA), unitary compounds of Indoles 1, Alcohols 1, Alcohols 3 / Normalized response, unitary compounds of Indoles 1, Alcohols 1, Alcohols 3: individual oocytes 1-7; for Normalized response, unitary compounds of Indoles 1, Alcohols 1, Alcohols 3: normalized per oocyte
T3 sequence (Q16Z13 1-389): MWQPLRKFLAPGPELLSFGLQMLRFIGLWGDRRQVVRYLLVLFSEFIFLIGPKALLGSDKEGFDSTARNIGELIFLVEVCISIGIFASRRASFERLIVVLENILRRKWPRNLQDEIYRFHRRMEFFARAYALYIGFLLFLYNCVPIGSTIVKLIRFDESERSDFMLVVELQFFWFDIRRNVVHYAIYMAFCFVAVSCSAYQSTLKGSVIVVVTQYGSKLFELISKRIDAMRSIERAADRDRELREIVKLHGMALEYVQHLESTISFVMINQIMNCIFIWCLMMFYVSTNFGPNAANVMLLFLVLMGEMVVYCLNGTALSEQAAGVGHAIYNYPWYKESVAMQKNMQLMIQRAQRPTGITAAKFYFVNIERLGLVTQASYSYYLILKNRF
T3 sequence (Q178U6 1-478 partner): T1 sequence (Q178U6 1-478 partner)
From the text: as §1, §2, §3

SMILES: C=C[C@@](C)(O)CCC=C(C)C [(S)-(+)-linalool]
- Normalized response, Average, Alcohols 3 unitary compounds ([1]; average of 10 oocytes): 19.1
- Raw Data (Responses in nA), Alcohols 3 unitary compounds [1]: 10 nA (2×) and 5 nA (5×) and 0 nA and 15 nA (2×)
- Normalized response, Alcohols 3 unitary compounds ([1]; individual oocytes 1-10, normalized to largest response of each oocyte): 33.3 and 14.3 and 25.0 and 0.0 and 30.0 and 16.7 (2×) and 12.5 and 22.2 and 20

SMILES: CC(C)=CCC/C(C)=C/CO [Geraniol]
- Raw Data (Responses in nA), Alcohols 3 unitary compounds [1]: 0 nA

SMILES: CCO [ethanol]
- Normalized response, Average, Alcohols 1 unitary compounds [2]: 0.0
- Raw Data (Responses in nA), Alcohols 1 unitary compounds [2]: 0.0 nA
- Normalized response, Alcohols 1 unitary compounds [2]: 0.0
- Normalized response, unitary compounds, Average [3]: 0.0
- Raw data (Responses in nA), unitary compounds of Indoles 1, Alcohols 1, Alcohols 3 [3]: 0.0 nA
- Normalized response, unitary compounds of Indoles 1, Alcohols 1, Alcohols 3 [3]: 0.0

SMILES: CC(C)=CCC/C(C)=C/CC/C(C)=C/CO [farnesol]
- EC50 ([2]; AaegOR31/Orco expressing oocytes, TEVC, concentration-response of normalized current): 14.3 µM
- Raw Data (Responses in nA), Alcohols 1 unitary compounds [2]: 170.0 nA and 40.0 nA and 50.0 nA and 120.0 nA and 340.0 nA and 75.0 nA and 80.0 nA and 270.0 nA
- Raw Data (Responses in nA), concentration-response ([2]; concentration 1e-7 M): 0.0 nA (4×) and 20.0 nA and 30.0 nA (2×) and 10.0 nA (2×) and 5.0 nA
- Raw Data (Responses in nA), concentration-response ([2]; concentration 5e-7 M): 5.0 nA (3×) and 10.0 nA (4×) and 20.0 nA and 0.0 nA and 15.0 nA
- Raw Data (Responses in nA), concentration-response ([2]; concentration 1e-6 M): 20.0 nA (6×) and 0.0 nA (2×) and 10.0 nA (2×)
- Raw Data (Responses in nA), concentration-response ([2]; concentration 5e-6 M): 90.0 nA (2×) and 80.0 nA and 30.0 nA and 50.0 nA (2×) and 20.0 nA (2×) and 40.0 nA and 100.0 nA
- Raw Data (Responses in nA), concentration-response ([2]; concentration 1e-5 M): 130.0 nA (2×) and 120.0 nA (2×) and 55.0 nA and 90.0 nA and 160.0 nA and 45.0 nA and 50.0 nA and 170.0 nA
- Raw Data (Responses in nA), concentration-response ([2]; concentration 5e-5 M): 190.0 nA and 320.0 nA and 270.0 nA and 130.0 nA and 260.0 nA and 430.0 nA and 150.0 nA and 100.0 nA and 290.0 nA and 360.0 nA
- Raw Data (Responses in nA), concentration-response ([2]; concentration 0.0001 M): 160.0 nA and 440.0 nA and 280.0 nA and 210.0 nA and 270.0 nA and 400.0 nA and 170.0 nA and 80.0 nA and 320.0 nA and 430.0 nA
- Raw data (Responses in nA), unitary compounds of Indoles 1, Alcohols 1, Alcohols 3 [3]: 0.0 nA

SMILES: OCC(O)CO [glycerol]
- Raw Data (Responses in nA), Alcohols 1 unitary compounds [2]: 5.0 nA (2×) and 0.0 nA (6×)
- Raw data (Responses in nA), unitary compounds of Indoles 1, Alcohols 1, Alcohols 3 [3]: 0.0 nA

SMILES: Cc1cccc(O)c1 [m-cresol]
- Raw Data (Responses in nA), Alcohols 1 unitary compounds [2]: 15.0 nA and 0.0 nA (7×)
- Raw data (Responses in nA), unitary compounds of Indoles 1, Alcohols 1, Alcohols 3 [3]: 0.0 nA and 75.0 nA and 25.0 nA (2×) and 40.0 nA (2×) and 45.0 nA

SMILES: CO [methanol]
- Normalized response, Average, Alcohols 1 unitary compounds [2]: 0.0
- Raw Data (Responses in nA), Alcohols 1 unitary compounds [2]: 0.0 nA
- Normalized response, Alcohols 1 unitary compounds [2]: 0.0
- Normalized response, unitary compounds, Average [3]: 0.0
- Raw data (Responses in nA), unitary compounds of Indoles 1, Alcohols 1, Alcohols 3 [3]: 0.0 nA
- Normalized response, unitary compounds of Indoles 1, Alcohols 1, Alcohols 3 [3]: 0.0

SMILES: CCCCO [n-butanol]
- Normalized response, Average, Alcohols 1 unitary compounds [2]: 0.0
- Raw Data (Responses in nA), Alcohols 1 unitary compounds [2]: 0.0 nA
- Normalized response, Alcohols 1 unitary compounds [2]: 0.0
- Normalized response, unitary compounds, Average [3]: 0.0
- Raw data (Responses in nA), unitary compounds of Indoles 1, Alcohols 1, Alcohols 3 [3]: 0.0 nA
- Normalized response, unitary compounds of Indoles 1, Alcohols 1, Alcohols 3 [3]: 0.0

SMILES: Cc1ccccc1O [o-cresol]
- Raw Data (Responses in nA), Alcohols 1 unitary compounds [2]: 0.0 nA
- Raw data (Responses in nA), unitary compounds of Indoles 1, Alcohols 1, Alcohols 3 [3]: 0.0 nA and 110.0 nA and 25.0 nA and 35.0 nA and 50.0 nA and 45.0 nA and 15.0 nA

SMILES: Cc1ccc(O)cc1 [p-cresol]
- Raw Data (Responses in nA), Alcohols 1 unitary compounds [2]: 0.0 nA
- Raw data (Responses in nA), unitary compounds of Indoles 1, Alcohols 1, Alcohols 3 [3]: 20.0 nA and 290.0 nA and 85.0 nA and 140.0 nA and 165.0 nA and 135.0 nA and 90.0 nA
